Laboratory results as given in patent US9284307B2, “Macrocyclic serine protease inhibitors” (Idenix Pharmaceuticals LLC, priority 2009, dated 2016).

Legend:
HCV NS3-NS4A protease 3a = molecular target: T1, HCV NS3-NS4A protease 3a (Hepatitis C virus genotype 3a, UniProt Q81258); assay: HCV protease assay (HiLyte Fluor TR/QXL 610 FRET peptide), genotype 3a; format: biochemical; details: 2-3 nM protease, 60 min at 30° C., read-out: IC50 Against HS3/4A 3a
T1 construct: using 2-3 nM HCV NS3-NS4A protease, which was produced according to the method of Taremi et al; made in house
Procedure: (§1) Measurement of the inhibitory effect of compounds on HCV protease activity was performed using the HiLyte Fluor™ TR/QXL™ 610 FRET peptide from AnaSpec, Inc. (San Jose, Calif.) under conditions developed in-house using 2-3 nM HCV NS3-NS4A protease, which was produced according to the method of Taremi et al. (Protein Science, 1998, 7, 2143-2149). The compounds were tested at a variety of concentrations in assay buffer containing a final DMSO concentration of 5%. Reactions were allowed to proceed for 60 min at 30° C. and fluorescence measurements were recorded with a PerkinElmer Victor^3 V 1420 Multilabel Counter. The IC50 values were determined from the percent inhibition versus concentration data using a sigmoidal non-linear regression analysis based on four parameters with XLfit 4.1 software.

in vitro = format: cell-based; details: human
Procedure: For cytotoxicity evaluation, GS4.1 cells were treated with compounds as described above and cellular viability was monitored using the Cell Titer 96 AQueous One Solution Cell Proliferation Assay (Promega). CC50 values were determined from the % cytotoxicity versus concentration data with Tecan Magellan software as described above.

[1] = tested on: JFH-1 HCV virus (genotype 2a); assay: Genotype 2a infectious virus assay (JFH-1, HCV core ELISA in HPC cells); format: cell-based; details: Hepatitis C virus, 120 h, 5 days
Procedure: The genotype 2a infectious virus assay measures the ability of a test compound to inhibit HCV replication in cell culture after 5 days of treatment at the time of HCV genotype 2a virus infection of a permissive human hepatoma cell line (HPC cells). The inhibition of HCV replication was measured by quantification of HCV core protein expression by an enzyme-linked immunosorbent assay (ELISA). Briefly, HPC cells were grown in DMEM containing glucose, L-glutamine and sodium pyruvate, 10% FBS, 100 IU/mL penicillin, 100 μg/mL streptomycin, 2 mM GlutaMAX, and non-essential amino acids. GlutaMAX was obtained from Invitrogen, Corp.; all other media reagents were obtained from Mediatech, Inc. For dose-response testing, ninety-six-well plates were seeded with HPC cells at a density of 2.5×10^3 cells/well in a volume of 50 μL, and incubated at 37° C./5% CO2. Three hours after plating, 50 μL of ten 5-fold serial dilutions of compound and 100 μL of genotype 2a virus were added, and cell cultures were incubated at 37° C./5% CO2. […]
The HCV in vitro infection core ELISA assay measures the ability of a test compound to inhibit replication of an infectious HCV (strain JFH-1; genotype 2a) in cell culture. […] The readout of the assay is quantification of HCV core protein by ELISA 5 days post infection with JFH-1 virus and treatment with a test compound. […]

HCV NS3-NS4A protease 4a = molecular target: T2, HCV NS3-NS4A protease 4a (Hepatitis C virus genotype 4a, UniProt O39929); assay: HCV protease assay (HiLyte Fluor TR/QXL 610 FRET peptide), genotype 4a; format: biochemical; details: 2-3 nM protease, 60 min at 30° C., read-out: IC50 Against HS3/4A 4a
T2 construct: using 2-3 nM HCV NS3-NS4A protease, which was produced according to the method of Taremi et al; made in house
Procedure: as §1

T2 sequence (O39929 1027-1208): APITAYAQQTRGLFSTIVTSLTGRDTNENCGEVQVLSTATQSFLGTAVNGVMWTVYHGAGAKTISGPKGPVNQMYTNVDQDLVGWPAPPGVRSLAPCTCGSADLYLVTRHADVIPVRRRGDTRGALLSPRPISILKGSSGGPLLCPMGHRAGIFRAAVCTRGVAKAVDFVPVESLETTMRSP
T1 sequence (Q81258 1033-1214): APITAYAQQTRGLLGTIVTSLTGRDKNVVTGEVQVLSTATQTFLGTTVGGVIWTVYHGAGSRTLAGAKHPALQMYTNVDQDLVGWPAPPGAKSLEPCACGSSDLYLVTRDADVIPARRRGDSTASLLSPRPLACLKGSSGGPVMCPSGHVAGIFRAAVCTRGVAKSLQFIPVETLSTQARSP

Row | SMILES | IC50 (HCV NS3-NS4A protease 3a) | CC50 (in vitro) | EC50 [1] | IC50 (HCV NS3-NS4A protease 4a)
1 | COc1ccc2c(O[C@H]3CC[C@H]4C(=O)N(C)CCCC/C=C\[C@@H]5C[C@@]5(C(=O)NS(=O)(=O)C5(C)CC5)NC(=O)[C@@H]4C3)cc(-c3nc(C(F)(F)F)cs3)nc2c1C [Compound 51] | < 1000 nM | 10 to 75 µM | < 1000 nM | < 1000 nM
2 | C#Cc1csc(-c2cc(O[C@H]3CC[C@H]4C(=O)N(C)CCCC/C=C\[C@@H]5C[C@@]5(C(=O)NS(=O)(=O)C5(C)CC5)NC(=O)[C@@H]4C3)c3ccc(OC)c(C)c3n2)n1 [Compound 52, (1aR,3aR,5S,7aR,15aS,Z)-5-(2-(4-ethynylthiazol-2-yl)-7-methoxy-8-methylquinolin-4-yloxy)-9-methyl-N-(1-methylcyclopropylsulfonyl)-3,8-dioxo-1a,2,3,3a,4,5,6,7,7a,8,9,10,11,12,13,15a-hexadecahydro-1H-benzo[c]cyclopropa[g][1,6]diazacyclotetradecine-1a-carboxamide] |  |  | < 1000 nM | 
